Test system: 361931-004-R-J1-PDC multicell spheroid viability
Test: Anticancer human tumor 361931-004-R-J1-PDC patient-derived colon adenocarcinoma cell line growth inhibition [PI3K]
Settings: for IC50: curve of first compound; for viability, T/C: stronger effect = lower value
Outline: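 Targeted small molecules plus PI3K inhibitors, half-log dose series from Cmax (default top 10 microM), were applied to heterotypic spheroids of cancer cells with HUVEC and MSCs. Viability indicated growth inhibition.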

[1] = second compound 0.00316 µM, first compound 0.0316 µM
[2] = second compound 0.00316 µM, first compound 0.1 µM
[3] = second compound 0.00316 µM, first compound 0.316 µM
[4] = second compound 0.00316 µM, first compound 1 µM
[5] = second compound 0.00316 µM, first compound 3.16 µM
[6] = second compound 0.00316 µM, first compound 10 µM
[7] = second compound 0.01 µM, first compound 0.0316 µM
[8] = second compound 0.01 µM, first compound 0.1 µM
[9] = second compound 0.01 µM, first compound 0.316 µM
[10] = second compound 0.01 µM, first compound 1 µM
[11] = second compound 0.01 µM, first compound 3.16 µM
[12] = second compound 0.01 µM, first compound 10 µM
[13] = second compound 0.0316 µM, first compound 0.0316 µM
[14] = second compound 0.0316 µM, first compound 0.1 µM
[15] = second compound 0.0316 µM, first compound 0.316 µM
[16] = second compound 0.0316 µM, first compound 1 µM
[17] = second compound 0.0316 µM, first compound 3.16 µM
[18] = second compound 0.0316 µM, first compound 10 µM
[19] = second compound 0.1 µM, first compound 0.0316 µM
[20] = second compound 0.1 µM, first compound 0.1 µM
[21] = second compound 0.1 µM, first compound 0.316 µM
[22] = second compound 0.1 µM, first compound 1 µM
[23] = second compound 0.1 µM, first compound 3.16 µM
[24] = second compound 0.1 µM, first compound 10 µM
[25] = second compound 0.316 µM, first compound 0.0316 µM
[26] = second compound 0.316 µM, first compound 0.1 µM
[27] = second compound 0.316 µM, first compound 0.316 µM
[28] = second compound 0.316 µM, first compound 1 µM
[29] = second compound 0.316 µM, first compound 3.16 µM
[30] = second compound 0.316 µM, first compound 10 µM
[31] = second compound 1 µM, first compound 0.0316 µM
[32] = second compound 1 µM, first compound 0.1 µM
[33] = second compound 1 µM, first compound 0.316 µM
[34] = second compound 1 µM, first compound 1 µM
[35] = second compound 1 µM, first compound 3.16 µM
[36] = second compound 1 µM, first compound 10 µM
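Note: spheroids exposed to agents for seven days before readout.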

Cn1cnc2c(F)c(Nc3ccc(Br)cc3Cl)c(C(=O)NOCCO)cc21 + COc1c(OCCCN2CCOCC2)ccc2c3n(c(=NC(=O)c4cnc(N)nc4)nc12)CCN3
IC50 (second compound 0.00316 µM): > 3000 nM | IC50 (second compound 0.01 µM): 1950 nM | IC50 (second compound 0.0316 µM): 718 nM | IC50 (second compound 0.1 µM): 156 nM | IC50 (second compound 0.316 µM): 11.4 nM | IC50 (second compound 1 µM): < 9.49 nM | viability, T/C (second compound 0.00316 µM, first compound 0.00949 µM): 104% | viability, T/C (second compound 0.00316 µM, first compound 0.03 µM): 99.9% | viability, T/C (second compound 0.00316 µM, first compound 0.0949 µM): 92.1% | viability, T/C (second compound 0.00316 µM, first compound 0.3 µM): 86.6% | viability, T/C (second compound 0.00316 µM, first compound 0.949 µM): 75.6% | viability, T/C (second compound 0.00316 µM, first compound 3 µM): 57.5% | viability, T/C (second compound 0.01 µM, first compound 0.00949 µM): 107% | viability, T/C (second compound 0.01 µM, first compound 0.03 µM): 101% | viability, T/C (second compound 0.01 µM, first compound 0.0949 µM): 88.6% | viability, T/C (second compound 0.01 µM, first compound 0.3 µM): 85.6% | viability, T/C (second compound 0.01 µM, first compound 0.949 µM): 69% | viability, T/C (second compound 0.01 µM, first compound 3 µM): 38.7% | viability, T/C (second compound 0.0316 µM, first compound 0.00949 µM): 102% | viability, T/C (second compound 0.0316 µM, first compound 0.03 µM): 93% | viability, T/C (second compound 0.0316 µM, first compound 0.0949 µM): 81% | viability, T/C (second compound 0.0316 µM, first compound 0.3 µM): 67.2% | viability, T/C (second compound 0.0316 µM, first compound 0.949 µM): 45.3% | viability, T/C (second compound 0.0316 µM, first compound 3 µM): 16% | viability, T/C (second compound 0.1 µM, first compound 0.00949 µM): 81.5% | viability, T/C (second compound 0.1 µM, first compound 0.03 µM): 69.3% | viability, T/C (second compound 0.1 µM, first compound 0.0949 µM): 55.4% | viability, T/C (second compound 0.1 µM, first compound 0.3 µM): 43.1% | viability, T/C (second compound 0.1 µM, first compound 0.949 µM): 23.9% | viability, T/C (second compound 0.1 µM, first compound 3 µM): 3.88% | viability, T/C (second compound 0.316 µM, first compound 0.00949 µM): 50.8% | viability, T/C (second compound 0.316 µM, first compound 0.03 µM): 44.9% | viability, T/C (second compound 0.316 µM, first compound 0.0949 µM): 28.9% | viability, T/C (second compound 0.316 µM, first compound 0.3 µM): 18% | viability, T/C (second compound 0.316 µM, first compound 0.949 µM): 4.2% | viability, T/C (second compound 0.316 µM, first compound 3 µM): 1.79% | viability, T/C (second compound 1 µM, first compound 0.00949 µM): 21.7% | viability, T/C (second compound 1 µM, first compound 0.03 µM): 17.9% | viability, T/C (second compound 1 µM, first compound 0.0949 µM): 10.1% | viability, T/C (second compound 1 µM, first compound 0.3 µM): 3.9% | viability, T/C (second compound 1 µM, first compound 0.949 µM): 2.04% | viability, T/C (second compound 1 µM, first compound 3 µM): 1.34%

Cn1ncc(Cl)c1-c1cc(C(=O)NC(CN)Cc2cccc(F)c2)sc1Cl (stereo unspecified) + COc1c(OCCCN2CCOCC2)ccc2c3n(c(=NC(=O)c4cnc(N)nc4)nc12)CCN3
IC50 (second compound 0.00316 µM): 2520 nM | IC50 (second compound 0.01 µM): 1910 nM | IC50 (second compound 0.0316 µM): 1820 nM | IC50 (second compound 0.1 µM): 1570 nM | IC50 (second compound 0.316 µM): 49.1 nM | IC50 (second compound 1 µM): < 31.6 nM | viability, T/C [1]: 104% | viability, T/C [2]: 111% | viability, T/C [3]: 100% | viability, T/C [4]: 80.6% | viability, T/C [5]: 42.5% | viability, T/C [6]: 27.4% | viability, T/C [7]: 104% | viability, T/C [8]: 102% | viability, T/C [9]: 94.8% | viability, T/C [10]: 66.7% | viability, T/C [11]: 37.2% | viability, T/C [12]: 26.7% | viability, T/C [13]: 94.9% | viability, T/C [14]: 101% | viability, T/C [15]: 90.6% | viability, T/C [16]: 61.6% | viability, T/C [17]: 40.1% | viability, T/C [18]: 25.6% | viability, T/C [19]: 83.4% | viability, T/C [20]: 83.9% | viability, T/C [21]: 74.2% | viability, T/C [22]: 63% | viability, T/C [23]: 31.6% | viability, T/C [24]: 19% | viability, T/C [25]: 54.2% | viability, T/C [26]: 43.5% | viability, T/C [27]: 40.5% | viability, T/C [28]: 35.8% | viability, T/C [29]: 30.9% | viability, T/C [30]: 15.8% | viability, T/C [31]: 19.7% | viability, T/C [32]: 19.4% | viability, T/C [33]: 18.7% | viability, T/C [34]: 20.3% | viability, T/C [35]: 19.7% | viability, T/C [36]: 10.3%

CCCS(=O)(=O)Nc1ccc(F)c(C(=O)c2c[nH]c3ncc(-c4ccc(Cl)cc4)cc23)c1F + CC(Nc1ccc2c(c1)OCCn1cc(N3C(=O)OCC3C(F)F)nc1-2)C(N)=O
IC50 (second compound 0.00316 µM): 5170 nM | IC50 (second compound 0.01 µM): 5130 nM | IC50 (second compound 0.0316 µM): 5270 nM | IC50 (second compound 0.1 µM): 4340 nM | IC50 (second compound 0.316 µM): 4030 nM | IC50 (second compound 1 µM): 1740 nM | viability, T/C [1]: 102% | viability, T/C [2]: 100% | viability, T/C [3]: 84.9% | viability, T/C [4]: 82.8% | viability, T/C [5]: 83.8% | viability, T/C [6]: 4.25% | viability, T/C [7]: 101% | viability, T/C [8]: 94.7% | viability, T/C [9]: 81.8% | viability, T/C [10]: 83.6% | viability, T/C [11]: 83.4% | viability, T/C [12]: 4.05% | viability, T/C [13]: 92.3% | viability, T/C [14]: 86% | viability, T/C [15]: 85.5% | viability, T/C [16]: 83% | viability, T/C [17]: 87.2% | viability, T/C [18]: 3.87% | viability, T/C [19]: 88.5% | viability, T/C [20]: 81.5% | viability, T/C [21]: 89.1% | viability, T/C [22]: 73% | viability, T/C [23]: 70.2% | viability, T/C [24]: 4.14% | viability, T/C [25]: 86.7% | viability, T/C [26]: 72.6% | viability, T/C [27]: 63% | viability, T/C [28]: 73.5% | viability, T/C [29]: 62.5% | viability, T/C [30]: 3.6% | viability, T/C [31]: 74.4% | viability, T/C [32]: 65.7% | viability, T/C [33]: 70% | viability, T/C [34]: 50.3% | viability, T/C [35]: 46.6% | viability, T/C [36]: 2.59%

From PubChem BioAssay AID1963979 (Molecular Pharmacology Branch, DTP, NCI, 2024)
